# Results taken from US11781101B2, “3D-printed models of biological microenvironments” (Regents of the University of Minnesota, priority 2018, dated 2023).
# System: HUVEC-lined conduit
# Details: laser-triggered release of VEGF from capsules on one side of conduit
# Source text: To mimic the beginning of a metastatic cascade in the context of cell types relevant to the tumor microenvironment, a vascularized 3D-printed culture chamber was configured to provide spatiotemporal control over both tumor cell invasion and angiogenesis as illustrated in FIG. 28. The angiogenic mediator VEGF was introduced to promote and direct the formation of a vascular network from a pre-existing uniaxial conduit.
substance,measurement,value
VEGF,endothelial sprouting from the conduit,numerous endothelial cells sprouted from the conduit
